From patent publication US20220324865A1 (Bayer Aktiengesellschaft, priority 2018, published 2022)
Where a name gives a salt, the structure may show the parent alone.

What follows are molecules tested against T1, human EP3 receptor (Homo sapiens, UniProt P43115) (assay: Cellular in vitro assay for determining EP3 receptor activity (human EP3 cell line, sulprostone-stimulated calcium luminescence)). Conditions: CHO cells expressing human EP3 and mitochondrial Clytin; antagonist mode, sulprostone at EC50; read-out: EP3 CHO mtCLY ANTAG IC50.
T1 construct: expressed in transfected cells; host or cells: CHO K1 (Chinese Hamster Ovary), stably co-transfected with Galpha16 and mitochondrial clytin
T1 sequence (P43115 1-390): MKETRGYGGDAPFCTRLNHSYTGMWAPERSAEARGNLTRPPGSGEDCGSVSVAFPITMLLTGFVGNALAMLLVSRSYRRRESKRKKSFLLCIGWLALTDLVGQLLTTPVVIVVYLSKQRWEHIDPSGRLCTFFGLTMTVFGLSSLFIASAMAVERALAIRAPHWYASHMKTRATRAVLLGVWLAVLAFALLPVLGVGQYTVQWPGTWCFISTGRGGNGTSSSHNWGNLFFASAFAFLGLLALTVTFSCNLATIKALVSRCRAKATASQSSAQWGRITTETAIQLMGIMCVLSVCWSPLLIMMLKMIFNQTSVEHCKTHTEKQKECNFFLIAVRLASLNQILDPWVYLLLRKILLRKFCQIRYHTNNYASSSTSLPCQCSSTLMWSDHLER
Assay type: cell-based
Summary of the method: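 CHO K1 cells stably expressing human EP3 with Gα16 and mitochondrial Clytin, loaded overnight with coelenterazine. Compounds added 10 min before sulprostone at its EC50; antagonism read immediately as reduced calcium-driven luminescence, quadruplicate points.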
An IC50 of 3.95 nM was found for `Cc1c(C(=O)NC(c2ccc(F)cc2)C(C)C)nn2c(C)c(-c3ccc4ccccc4c3)[nH]c(=O)c12` (stereo not shown) [Example 3-41, N-[1-(4-Fluorophenyl)-2-methylpropyl]-3,7-dimethyl-6-(2-naphthyl)-4-oxo-5H-pyrazolo[1,5-a]pyrazine-2-carboxamide] in this work.
An IC50 of 2.1 nM was found for `COc1cc(-c2cn3nc(C(=O)N[C@@H](c4ccc(F)cc4)C(F)(F)CO)c(C4CC4)c3c(=O)[nH]2)ccc1Cl` [6-486] in this work.
An IC50 of 1.09 nM was found for `O=C(N[C@H](CCO)c1ccc(F)cc1)c1nn2cc(-c3cccc(Cl)c3)[nH]c(=O)c2c1C1CC1` [6-679] in this work.
An IC50 of 2.3 nM was found for `Cc1ccc(-c2cn3nc(C(=O)NC(CO)C(F)(F)F)c(C(F)(F)F)c3c(=O)[nH]2)cc1Cl` (racemic) [6-161] in this work.
An IC50 of 5.15 nM was found for `COc1ccc(C2(NC(=O)c3nn4cc(-c5ccc(C)c(C)c5)[nH]c(=O)c4c3C3CC3)CN(C)C2)cc1` [6-427] in this work.
An IC50 of 6.55 nM was found for `Cc1ccc(-c2cn3nc(C(=O)N[C@@H](c4ccc(F)cc4)C(C)(C)O)cc3c(=O)[nH]2)cc1F` [6-644] in this work.
An IC50 of 5.9 nM was found for `COc1ccc(C2(NC(=O)c3cc4c(=O)[nH]c(-c5ccc6ccccc6c5)cn4n3)CN(C)C2)cc1` [Example 1-59, N-[3-(4-Methoxyphenyl)-1-methylazetidin-3-yl]-6-(naphthalen-2-yl)-4-oxo-4,5-dihydropyrazolo-[1,5-a]pyrazine-2-carboxamide formic acid salt] in this work.
An IC50 of 0.77 nM was found for `Cc1ccc(-c2cn3nc(C(=O)NCC(O)C(F)(F)F)c(C4CC4)c3c(=O)[nH]2)cc1C` (single isomer, unassigned) [6-437] in this work.
An IC50 of 1.67 nM was found for `Cc1ccc(-c2cn3nc(C(=O)NC(CCn4cncn4)c4ccccc4)cc3c(=O)[nH]2)cc1C` (racemic) [Example 1-12, rac-6-(3,4-Dimethylphenyl)-4-oxo-N-[1-phenyl-3-(1,2,4-triazol-1-yl)propyl]-5H-pyrazolo[1,5-a]-pyrazine-2-carboxamide] in this work.
An IC50 of 1.55 nM was found for `COc1ccc(C(NC(=O)c2nn3cc(-c4cnc5cccc(C)c5c4)[nH]c(=O)c3c2C(C)C)C2CC2)cc1` (stereo not shown) [Example 4-78, N-[Cyclopropyl(4-methoxyphenyl)methyl]-3-isopropyl-6-(5-methyl-3-quinolyl)-4-oxo-5H-pyrazolo[1,5-a]pyrazine-2-carboxamide] in this work.
An IC50 of 0.785 nM was found for `CCn1cc(CNC(=O)c2nn3cc(-c4cnc5cccc(C)c5c4)[nH]c(=O)c3c2C(C)C)c(C)n1` [Example 4-36, N-[(1-Ethyl-3-methyl-1H-pyrazol-4-yl)methyl]-6-(5-methylquinolin-3-yl)-4-oxo-3-(propan-2-yl)-4,5-dihydropyrazolo[1,5-a]pyrazine-2-carboxamide] in this work.
An IC50 of 0.82 nM was found for `C[C@@H](NC(=O)c1nn2cc(-c3ccc4ccccc4c3)[nH]c(=O)c2c1C(F)(F)F)c1ccc(F)cc1` [Example 1-53, N-[(1R)-1-(4-Fluorophenyl)ethyl]-6-(naphthalen-2-yl)-4-oxo-3-(trifluoromethyl)-4,5-dihydropyrazolo[1,5-a]pyrazine-2-carboxamide] in this work.
An IC50 of 3.35 nM was found for `CC(C)c1c(C(=O)NC2(c3ccc(F)cc3)CN(C)C2)nn2cc(-c3cccc(Cl)c3)[nH]c(=O)c12` [6-684] in this work.
An IC50 of 1.34 nM was found for `Cc1c(C(=O)NCC(C)Cn2cccn2)nn2c(C)c(-c3ccc4ccccc4c3)[nH]c(=O)c12` (stereo not shown) [Example 3-7, 3,7-Dimethyl-N-[2-methyl-3-(1H-pyrazol-1-yl)propyl]-6-(2-naphthyl)-4-oxo-4,5-dihydropyrazolo[1,5-a]pyrazine-2-carboxamide] in this work.
An IC50 of 0.443 nM was found for `Cc1ccc(-c2cn3nc(C(=O)N[C@H](CCO)c4ccc(F)cc4)c(Cl)c3c(=O)[nH]2)cc1C` [Example 1-63, 3-Chloro-6-(3,4-dimethylphenyl)-N-[(1R)-1-(4-fluorophenyl)-3-hydroxypropyl]-4-oxo-4,5-dihydropyrazolo[1,5-a]pyrazine-2-carboxamide] in this work.
An IC50 of 5.5 nM was found for `N#Cc1c(C(=O)N[C@@H]2CCCc3ccccc32)nn2cc(-c3ccc4ccccc4c3)[nH]c(=O)c12` [Example 3-48, 3-Cyano-6-(naphthalen-2-yl)-4-oxo-N-[(7R)-1,2,3,4-tetrahydronaphthalen-1-yl]-4,5-dihydropyrazolo[1,5-a]pyrazine-2-carboxamide] in this work.
An IC50 of 1.3 nM was found for `Cc1ccc(-c2cn3nc(C(=O)N[C@H](C)c4ccc(F)cc4)c(C#N)c3c(=O)[nH]2)cc1C` [Example 1-73, 3-Cyano-6-(3,4-dimethylphenyl)-N-[(1R)-1-(4-fluorophenyl)ethyl]-4-oxo-4,5-dihydropyrazolo-[1,5-a]pyrazine-2-carboxamide] in this work.
An IC50 of 0.815 nM was found for `Cc1cccc2ncc(-c3cn4nc(C(=O)NCc5ccnn5C)c(C(C)C)c4c(=O)[nH]3)cc12` [Example 4-22, N-[(1-Methyl-1H-pyrazol-5-yl)methyl]-6-(5-methylquinolin-3-yl)-4-oxo-3-(propan-2-yl)-4,5-dihydropyrazolo[1,5-a]pyrazine-2-carboxamide] in this work.
An IC50 of 3.6 nM was found for `O=C(NC(CCO)c1ccc(F)cc1)c1cc2c(=O)[nH]c(-c3ccc4cccnc4c3)cn2n1` (stereo not shown) [Example 1-62, N-[1-(4-Fluorophenyl)-3-hydroxpropyl]-4-oxo-6-(7-quinolyl)-5H-pyrazolo[1,5-a]pyrazine-2-carboxamide] in this work.
An IC50 of 0.74 nM was found for `Cc1cc(-c2cn3nc(C(=O)N[C@@H](c4ccc(F)cc4)[C@@H](O)C(F)(F)F)c(C4CC4)c3c(=O)[nH]2)ccc1Cl` [6-316] in this work.
An IC50 of 1.5 nM was found for `Cc1cc(-c2cn3nc(C(=O)N[C@H](C)C4CC4)c(C(C)C)c3c(=O)[nH]2)ccc1Cl` [6-609] in this work.
An IC50 of 4.3 nM was found for `Cc1cccc2ncc(-c3cn4nc(C(=O)NC(C)(C)c5cc(Cl)cc(Cl)c5)c(C(C)C)c4c(=O)[nH]3)cc12` [Example 4-8, N-[2-(3,5-Dichlorophenyl)propan-2-yl]-6-(5-methylquinolin-3-yl)-4-oxo-3-(propan-2-yl)-4,5-dihydropyrazolo[1,5-a]pyrazine-2-carboxamide] in this work.
An IC50 of 2.2 nM was found for `CC[C@@H](NC(=O)c1nn2c(C)c(-c3ccc4ccccc4c3)[nH]c(=O)c2c1C)c1ccccc1` [Example 3-33, 3,7-Dimethyl-6-(naphthalen-2-yl)-4-oxo-N-[(7R)-1-phenylpropyl]-4,5-dihydropyrazolo[1,5-a]pyrazine-2-carboxamide] in this work.
An IC50 of 1.7 nM was found for `Cc1ccc(-c2cn3nc(C(=O)N[C@H](C)c4ccc(C(F)(F)F)cc4)cc3c(=O)[nH]2)cc1C` [Example 1-15, 6-(3,4-Dimethylphenyl)-4-oxo-N-{(1R)-1-[4-(trifluoromethyl)phenyl]ethyl}-4,5-dihydropyrazolo-[1,5-a]pyrazine-2-carboxamide] in this work.
An IC50 of 0.41 nM was found for `Cc1ccc(-c2cn3nc(C(=O)N[C@@H](c4ccc(F)cc4)C(F)(F)CO)c(C(F)(F)C(F)(F)F)c3c(=O)[nH]2)cc1C` [6-489] in this work.
An IC50 of 9.75 nM was found for `Cc1ccc(-c2cn3nc(C(=O)NCCNCC(F)F)c(C(F)(F)F)c3c(=O)[nH]2)cc1Cl` [6-165] in this work.
An IC50 of 5.95 nM was found for `CCN1CCC(NC(=O)c2nn3cc(-c4ccc(C)c(F)c4)[nH]c(=O)c3c2C2CC2)(C(F)(F)F)C1` (racemic) [6-404] in this work.
An IC50 of 1.1 nM was found for `Cc1cccc2ncc(-c3cn4nc(C(=O)NC(C)c5ccc(S(N)(=O)=O)cc5)c(C(C)C)c4c(=O)[nH]3)cc12` (stereo not shown) [Example 4-53, 3-Isopropyl-6-(5-methyl-3-quinolyl)-4-oxo-N-[1-(4-sulfamoylphenyl)ethyl]-5H-pyrazolo[1,5-a]pyrazine-2-carboxamide] in this work.
An IC50 of 0.95 nM was found for `Cc1ccc(-c2cn3nc(C(=O)NC4CC(F)(F)C4)c(C4CC4)c3c(=O)[nH]2)cc1Cl` [6-255] in this work.
An IC50 of 5 nM was found for `Cc1ccc(-c2cn3nc(C(=O)NC4(c5ccc(F)cc5)CNC4)c(C(F)(F)F)c3c(=O)[nH]2)cc1C` [Example 1-175, 6-(3,4-Dimethylphenyl)-N-[3-(4-fluorophenyl)azetidin-3-yl]-4-oxo-3-(trifluoromethyl)-4,5-dihydropyrazolo[1,5-a]pyrazine-2-carboxamide-hydrogen chloride (1/1)] in this work.
An IC50 of 0.515 nM was found for `Cc1ccc(-c2cn3nc(C(=O)N[C@H](C)c4ccc(F)cc4)c(C(C)C)c3c(=O)[nH]2)cc1C` [Example 1-90, 6-(3,4-Dimethylphenyl)-N-[(1R)-1-(4-fluorophenyl)ethyl]-4-oxo-3-(propan-2-yl)-4,5-dihydropyrazolo[1,5-a]pyrazine-2-carboxamide] in this work.
An IC50 of 5.8 nM was found for `CC(NC(=O)c1cc2c(=O)[nH]c(-c3ccc4ccccc4c3)cn2n1)c1ccc(O)cc1` (stereo not shown) [Example 1-136, N-[1-(4-Hydroxphenyl)ethyl]-6-(2-naphthyl)-4-oxo-5H-pyrazolo[1,5-a]pyrazine-2-carboxamide] in this work.
An IC50 of 4.85 nM was found for `Cc1ccc(-c2cn3nc(C(=O)NC(CNC(=O)OC(C)(C)C)c4ccc(F)cc4)cc3c(=O)[nH]2)cc1C` (stereo not shown) [6-42] in this work.
An IC50 of 2.65 nM was found for `O=C(N[C@@H](c1ccc(F)cc1)C(F)(F)CO)c1nn2cc(-c3cc(Cl)c(Cl)cc3F)[nH]c(=O)c2c1C1CC1` [6-582] in this work.
An IC50 of 2.15 nM was found for `C[C@@H](NC(=O)c1cc2c(=O)[nH]c(-c3ccc4ccccc4c3)cn2n1)c1ccc2ccccc2c1` [Example 2-41, 6-(2-Naphthyl)-N-[(7R)-1-(2-naphthyl)ethyl]-4-oxo-4,5-dihydropyrazolo[1,5-a]pyrazine-2-carboxamide] in this work.
An IC50 of 4.05 nM was found for `Cc1cccc2ncc(-c3cn4nc(C(=O)NC(C)c5ccc(Cl)c(Cl)c5)c(C(C)C)c4c(=O)[nH]3)cc12` (stereo not shown) [Example 4-52, N-[1-(3,4-Dichlorophenyl)ethyl]-3-isopropyl-6-(5-methyl-3-quinolyl)-4-oxo-5H-pyrazolo[1,5-a]pyrazine-2-carboxamide] in this work.
An IC50 of 9.3 nM was found for `CCn1nccc1CNC(=O)c1nn2c(C)c(-c3ccc(C)c(C)c3)[nH]c(=O)c2c1C(F)(F)F` [6-13] in this work.
